In BindingDB's records for doi:10.1016/j.bmcl.2017.05.059 (University of Mysore, 2017):

Assay: Inhibition of Vipera russelii venom sPLA2-induced hemolytic activity in human erythrocytes assessed as reduction hemoglobin release in presence of egg yolk preincubated for 5 mins followed by erythrocyte addition by spectrophotometric analysis

SMILES: COc1ccc(C2CC(c3ccco3)=Nc3ccccc3S2)cc1 (stereo unspecified)
- IC50: 21.3 µM
